{"source": "patent US8815912B2", "about": "“Wound and mucosa antiseptic based on bispyridiniumalkanes” (L'Air Liquide Société Anonyme pour l'Etude et …, priority 2009, dated 2014)", "test": "Stability of solutions rendered isotonic (290 mOsmol/kg)", "format": "physicochemical", "conditions": "0.10% octenidine, dihydrochloride", "text": "To investigate the stability, aqueous solutions containing 0.1% by weight of octenidine were in each case rendered isotonic (290 mOsmol/kg)."}
{"smiles": "CCCCCCCCN=c1ccn(CCCCCCCCCCn2ccc(=NCCCCCCCC)cc2)cc1.Cl.Cl", "note": "[Octenidine, Octenidine dihydrochloride]", "values": [{"measurement": "Stability", "setting": "isotonicity adjusted with 0.85% sodium chloride, listed as octenidine", "value": "not stable"}, {"measurement": "Stability", "setting": "isotonicity adjusted with 2.4% glycerol (99.8% strength)", "value": "Stable between +4 °C and +40 °C"}, {"measurement": "Stability", "setting": "isotonicity adjusted with 2.4% glycerol (99.8% strength), listed as octenidine", "value": "stable"}, {"measurement": "Stability", "setting": "isotonicity adjusted with 99.9% Ringer's solution, listed as octenidine", "value": "not stable"}]}
